Measurements published in paper PMC12566046, “Arylpiperazinyl-Benzocycloheptapyrrole-Carboxamides Endowed with Dual Anticancer and Antiviral Activities” (Molecules, 2025).
Where two headings read alike, the source gives them in different places.

Tests used:
in vitro [1] = settings: dog
[2] = system: ZIKV, strain Brazil/2016/INMI1; test: ZIKV viral yield reduction assay on Huh-7 cells; format: cell-based, Zika virus; settings: for EC50: Zika virus
Protocol: We developed a protocol to screen the potential antiviral activity of compounds 1–20 against ZIKV (strain Brazil) on Huh-7 cells, against an H1N1 IAV strain (PR/8/1934) on MDCK cells, and against SARS-CoV-2 (strain Milano) on Vero-TMPRSS. Each compound was tested in duplicate at concentrations of 50 μM, 5 μM, and 0.5 μM. Treatment was applied immediately after infection, and at 24–48 h post-infection, supernatants were collected to assess viral yield, determined as PFU/mL for ZIKV and SARS-CoV-2 or as TCID50/mL for IAV. The test allowed us to evaluate both the antiviral action and the cytotoxicity of each compound, comparing them with reference compounds, such as sofosbuvir for ZIKV and EIDD-1931 for IAV and SARS-CoV-2 (Supplementary Materials, Figures S87–S89).
Viral yield reduction assays for ZIKV and SARS-CoV-2 were performed as previously described by Plicanti. Briefly, 1 × 10^4 Huh-7 cells/well and 1.2 × 10^4 VERO TMPRSS cells/well were infected with ZIKV (MOI 1) or SARS-CoV-2 (MOI 0.05) in a primary 96-well plate for 2 h at 37 °C, 5% CO2. […] Supernatants were collected after 48 h (Huh-7) or 24 h (VERO TMPRSS), diluted 3-fold, and added onto VERO E6 or VERO TMPRSS monolayers, respectively. After 2 h at 37 °C, the inoculum was replaced with 0.75% carboxymethyl cellulose (Merck®, Darmstadt, Germany) in DMEM 2% FBS. After 48–72 h, cells were then fixed with 4% buffered formalin solution (Merck®, Darmstadt, Germany) and stained with 1% crystal violet (Merck®, Darmstadt, Germany). Titres and percentage of inhibition were calculated as follows:
PFU/mL = number of plaques*3^n/vol infection, where n is the dilution where plaques were counted:% inhibition = 100 × (1 − Titre-compound/Titre-untreated control) where Titre-compound and Titre-untreated control are the titres (PFU/mL) obtained on cells treated with compound or DMSO, respectively.
SI was obtained by dividing CC50 by EC50 for each drug/virus/cell line. Compounds with SI values ≥ 10 were active in vitro.

[3] = system: K-562 (leukemia cell line); test: NCI-60 single-dose assay; format: cell-based; settings: Homo sapiens, K562, read-out: growth inhibition (GI%) and cytotoxicity (negative values)
Excerpt: We first evaluated the cytotoxic activity of tricyclic-pyrrole carboxamides 1–20 using the NCI-60 cell line panel, representing nine different human cancers: leukemia, melanoma, and cancers of the lung, colon, central nervous system (CNS), ovary, kidney, prostate, and breast (the one-dose graph for compounds 1–20 is reported in Supplementary Materials, Figures S43–S62). Compounds 1, 5, 10, 11, 17, and 20 satisfied pre-determined threshold inhibition criteria in a minimum number of cell lines; therefore, they were also tested in the full five-dose assay (Figures S63–S68 in the Supplementary Materials).

in vitro [4] = settings: African green monkey
[5] = system: SK-MEL-5 (melanoma cell line); test: NCI-60 single-dose assay; format: cell-based, human; settings: human
In short: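 One-dose NCI-60 screen measuring cytotoxic activity; compounds meeting pre-set threshold inhibition criteria in a minimum number of lines advanced to the five-dose assay.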

[6] = system: SARS-CoV-2 VR PV10734 (strain Milano); test: microbe, parasite or virus in culture; format: cell-based; settings: for EC50: Severe acute respiratory syndrome coronavirus 2; for selectivity index (SI): CC50/EC50
[7] = Cytotoxicity on uninfected Huh-7 cells (WST-8, crystal violet); settings: human, uninfected Huh-7 cells
Protocol: The toxicity of the compounds at the same concentration was tested on the same cells in parallel.
Cytotoxic effects were evaluated on uninfected cells using the WST-8 assay (Orangu, Cell Guidance Systems, Cambridge, UK) and the crystal violet assay [23]. […] Huh-7, MDCK, and Vero TMPRSS cells were seeded at 1 × 10^4, 1.5 × 10^4, and 1.2 × 10^4 cells/well, respectively, and incubated for 48 h (Huh-7 and MDCK) or 24 h (VERO TMPRSS), following conditions matching those of the corresponding antiviral assays in terms of timing and culture medium. At the end of incubation, the medium was replaced with a 10% WST-8 solution in DMEM and incubated for 1 h at 37 °C. Optical density (OD) was then measured at 450 nm using a Varioskan LUX plate reader (ThermoFisher Scientific, Milano, Italy). Subsequently, cells were fixed with 4% buffered formalin solution (Merck®, Darmstadt, Germany), stained with 1% crystal violet (Merck®, Darmstadt, Germany), and the dye was solubilized in 30% acetic acid for 30 min under shaking. OD was then measured at 595 nm as an additional readout of cell viability. The percentage of viability at each concentration was calculated using the formula:% viability = 100 × (ODcompound/ODuntreated control) where ODcompound and ODuntreated are the OD of the cells treated with compound or DMSO, respectively.
The CC50 value was determined by nonlinear regression analysis on GraphPad Prism 7 (San Diego, CA, USA).

[8] = system: IAV strain A/PR/8/34 (H1N1); test: microbe, parasite or virus in culture; settings: Influenza A virus, MDCK, read-out: IAV/MDCK EC50
[9] = system: RXF 393 (renal cancer cells); test: NCI-60 five-dose assay; format: cell-based, human; settings: Homo sapiens, five-dose screen
[10] = system: KM12 (colon cancer cell line); test: NCI-60 five-dose assay; format: cell-based, human; settings: Homo sapiens, five doses (10^−4–10^−8 M), read-out: Growth inhibition 50 (GI50)
[11] = system: SK-MEL-5 (melanoma cell line); test: NCI-60 five-dose assay
[12] = system: SW-620 (colon cancer cell line); test: NCI-60 five-dose assay; format: cell-based, human; settings: Homo sapiens; SW-620; five doses (10^−4–10^−8 M); read-out: Growth inhibition 50 (GI50)
[13] = system: MOLT-4 (leukemia cell line); test: NCI-60 five-dose assay; format: cell-based, human; settings: Homo sapiens, five doses (10^−4–10^−8 M), read-out: Growth inhibition 50 (GI50)
[14] = system: RPMI-8226 (leukemia cell line); test: NCI-60 five-dose assay; format: cell-based, human; settings: Homo sapiens, five doses (10^−4–10^−8 M), read-out: Growth inhibition 50 (GI50)
[15] = system: K-562 (leukemia cell line); test: NCI-60 five-dose assay; format: cell-based, human; settings: Homo sapiens, K562, five doses (10^−4–10^−8 M), read-out: Growth inhibition 50 (GI50)
M14 (melanoma cell line) = test: NCI-60 five-dose assay
SR (leukemia cell line) = test: NCI-60 five-dose assay; format: cell-based, human; settings: Homo sapiens, five doses (10^−4–10^−8 M), read-out: Growth inhibition 50 (GI50)
[16] = system: MALME-3M (melanoma cell line); test: NCI-60 five-dose assay
[17] = system: CCRF-CEM (leukemia cell line); test: NCI-60 five-dose assay; format: cell-based, human; settings: Homo sapiens, five doses (10^−4–10^−8 M), read-out: Growth inhibition 50 (GI50)
[18] = system: UACC-257 (melanoma cell line); test: NCI-60 five-dose assay
[19] = system: HCT-15 (colon cancer cell line); test: NCI-60 five-dose assay; format: cell-based, human; settings: Homo sapiens, five doses (10^−4–10^−8 M), read-out: Growth inhibition 50 (GI50)
[20] = Huh-7, read-out: ZIKV/Huh‐7 EC50
[21] = preliminary screening (50, 5, 0.5 μM), Vero TMPRSS, read-out: SARS‐CoV‐2/Vero TMPRSS EC50
[22] = preliminary screening (50, 5, 0.5 μM), Huh-7, read-out: ZIKV/Huh‐7 EC50
[23] = SARS-CoV-2, VERO TMPRSS cells, 24 h, full dose-response, read-out: EC50

COc1ccccc1N1CCN(CCNC(=O)c2[nH]c3c(c2Cl)CCCc2ccccc2-3)CC1 [Compound 5]
CC50 (in vitro [1]): 11 µM | EC50 [2, 20]: 3.82 µM | inhibition at 10 µM [3]: 95.8% | CC50 at 24 h (in vitro [4]): 29.4 µM | growth inhibition (GI%) and cytotoxicity (negative values) [5]: −62.59% | EC50 [6, 21]: 34.9 µM | CC50 at 48 h [7]: 24.3 µM

O=C(NCCN1CCN(c2ccccc2)CC1)c1c(Cl)[nH]c2c1CCCc1ccccc1-2 [Compound 12, 2-Chloro-N-(2-(4-phenylpiperazin-1-yl)ethyl)-1,4,5,6-tetrahydrobenzo[6,7]cyclohepta[1,2-b]pyrrole-3-carboxamide]
CC50 (in vitro [1]): 32.1 µM | EC50 [2, 22]: 1.54 µM | inhibition at 10 µM [3]: 70.9% | CC50 (in vitro [4]): 74.5 µM | CC50 at 24 h (in vitro [4]): 72.8 µM | growth inhibition (GI%) and cytotoxicity (negative values) [5]: −7.83% | EC50 [8]: 3.49 µM | selectivity index (SI) ([6]; SARS-CoV-2, VERO TMPRSS cells): 63.63 | EC50 [6, 23]: 1.17 µM | EC50 [6, 21]: 2.26 µM | CC50 at 48 h [7]: 34.2 µM

O=C(NCCN1CCN(c2ccc(Cl)cc2)CC1)c1c(Cl)[nH]c2c1CCCc1ccccc1-2 [Compound 13]
selectivity index (SI) ([2]; ZIKV, Huh-7 cells, CC50/EC50): 20.20 | EC50 ([2]; Huh-7, 48 h): 3.08 µM | EC50 [2, 20]: 1.3 µM | inhibition at 10 µM [3]: 70.9% | CC50 (in vitro [4]): 99 µM | CC50 at 24 h (in vitro [4]): 77.2 µM | growth inhibition (GI%) and cytotoxicity (negative values) [5]: −21.64% | EC50 [8]: 41.3 µM | selectivity index (SI) ([6]; SARS-CoV-2, VERO TMPRSS cells): 150.00 | EC50 [6, 23]: 0.66 µM | EC50 [6, 21]: > 0.5 µM | CC50 at 48 h [7]: 57.9 µM

O=C(NCCN1CCN(c2ccccc2Cl)CC1)c1c(Cl)[nH]c2c1CCCc1ccccc1-2 [Compound 14]
CC50 (in vitro [1]): 15.6 µM | EC50 [2, 22]: 4.74 µM | inhibition at 10 µM [3]: 70.3% | CC50 at 24 h (in vitro [4]): 36.7 µM | growth inhibition (GI%) and cytotoxicity (negative values) [5]: −3.84% | CC50 at 48 h [7]: 30.2 µM

COc1ccccc1N1CCN(CCNC(=O)c2c(Cl)[nH]c3c2CCCc2ccccc2-3)CC1 [Compound 15]
CC50 (in vitro [1]): 8.29 µM | EC50 [2, 20]: 4.74 µM | inhibition at 10 µM [3]: 92.7% | CC50 at 24 h (in vitro [4]): 38 µM | growth inhibition (GI%) and cytotoxicity (negative values) [5]: −75.22% | EC50 [8]: 17.7 µM | EC50 [6, 21]: 40.6 µM | CC50 at 48 h [7]: 9.43 µM

CCOc1ccccc1N1CCN(CCNC(=O)c2c(Cl)[nH]c3c2CCCc2ccccc2-3)CC1 [Compound 17]
CC50 (in vitro [1]): 8.13 µM | EC50 [2, 22]: 4.46 µM | inhibition at 10 µM [3]: 100% | CC50 at 24 h (in vitro [4]): 37.2 µM | growth inhibition (GI%) and cytotoxicity (negative values) [5]: −88.73% | EC50 [8]: 34.9 µM | GI50 [9]: 2.57 µM | CC50 at 48 h [7]: 16.4 µM

N#Cc1ccccc1N1CCN(CCNC(=O)c2c(Cl)[nH]c3c2CCCc2ccccc2-3)CC1 [Compound 18, 2-Chloro-N-(2-(4-(2-cyanophenyl)piperazin-1-yl)ethyl)-1,4,5,6-tetrahydrobenzo[6,7]cyclohepta[1,2-b]pyrrole-3-carboxamide]
CC50 (in vitro [1]): 13.9 µM | EC50 [2, 22]: 4.11 µM | inhibition at 10 µM [3]: 75.3% | CC50 at 24 h (in vitro [4]): 35 µM | growth inhibition (GI%) and cytotoxicity (negative values) [5]: −67.02% | EC50 [8]: 49.4 µM | CC50 at 48 h [7]: 15.5 µM

O=C(NCCCN1CCN(Cc2ccccc2)CC1)c1c(Cl)[nH]c2c1CCCc1ccccc1-2 [Compound 20, N-(3-(4-Benzylpiperazin-1-yl)propyl)-2-chloro-1,4,5,6-tetrahydrobenzo[6,7]cyclohepta[1,2-b]pyrrole-3-carboxamide]
CC50 (in vitro [1]): 6.12 µM | EC50 [2, 22]: 4.74 µM | inhibition at 10 µM [3]: < 60% | GI50 [10]: 9.38 µM | CC50 at 24 h (in vitro [4]): 15.4 µM | GI50 ([11]; Homo sapiens, SK-MEL-5, read-out: Growth inhibition 50 (GI50)): 1.79 µM | CC50 ([11]; Homo sapiens, SK-MEL-5, read-out: LC50 (molar concentration leading to 50% net cell death)): 6.46 µM | TGI (molar concentration giving total growth inhibition) ([11]; SK-MEL-5): 3.39 µM | GI50 [12]: 3.59 µM | growth inhibition (GI%) and cytotoxicity (negative values) [5]: −89.68% | GI50 [13]: 4.78 µM | GI50 [14]: 3.69 µM | EC50 [8]: 17.7 µM | GI50 [15]: 2.97 µM | GI50 (M14 (melanoma cell line); Homo sapiens, M14, read-out: Growth inhibition 50 (GI50)): 2.01 µM | CC50 (M14 (melanoma cell line); Homo sapiens, M14, read-out: LC50 (molar concentration leading to 50% net cell death)): 8.71 µM | TGI (molar concentration giving total growth inhibition) (M14 (melanoma cell line); M14): 4.17 µM | GI50 (SR (leukemia cell line)): 0.53 µM | GI50 ([16]; Homo sapiens, Malme-3M, read-out: Growth inhibition 50 (GI50)): 2.02 µM | CC50 ([16]; Homo sapiens, Malme-3M, read-out: LC50 (molar concentration leading to 50% net cell death)): 7.76 µM | TGI (molar concentration giving total growth inhibition) ([16]; MALME-3M): 3.98 µM | EC50 [6, 21]: 17.7 µM | GI50 [17]: 10.7 µM | GI50 ([18]; Homo sapiens, UACC-257, read-out: Growth inhibition 50 (GI50)): 1.87 µM | CC50 ([18]; Homo sapiens, UACC-257, read-out: LC50 (molar concentration leading to 50% net cell death)): 26.9 µM | TGI (molar concentration giving total growth inhibition) ([18]; UACC-257): 6.61 µM | CC50 at 48 h [7]: 6.23 µM | GI50 [19]: 7.78 µM
